± gives the standard deviation of the averaged measurements.
Assays:
[1] = test system: Danio rerio embryo; assay: EC20 Pigmentation decrease; higher = less potent; details: exposure time: 2 dpf
Experimental: (§1)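 Zebrafish embryos (UFZ-OBI strain) were exposed from 2 hpf for 48 h (2 dpf) or 96 h (4 dpf) at 28 °C; spontaneous tail coiling was scored at 25 hpf. Morphological features from automated image analysis (FishInspector), heart rate and locomotor response were fitted with drc models. Quantal endpoints were dichotomised at 2.5 SD from controls and fitted with a log-logistic model; heart rate, pigmentation and STC were normalised to the replicate control mean. Betamethasone was tested as betamethasone dipropionate, diflorasone as diflorasone diacetate.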

[2] = test system: Danio rerio embryo; assay: EC50 Curvature_Increase
Experimental: as §1

[3] = test system: Danio rerio embryo
Experimental: as §1

[4] = test system: Danio rerio embryo; assay: EC20 Body length_Decrease; higher = less potent; details: exposure time: 2 dpf
Experimental: as §1

[5] = test system: Danio rerio embryo; assay: EC20 Pericard size_Increase; higher = less potent
Experimental: as §1

[6] = test system: Danio rerio embryo; assay: EC10 Lack of SB; higher = less potent; details: exposure time: 4 dpf
Experimental: as §1

[7] = test system: Danio rerio embryo; assay: EC10 Body length_Decrease; higher = less potent; details: exposure time: 2 dpf
Experimental: as §1

[8] = test system: Danio rerio embryo; assay: EC50 Head size_Decrease
Experimental: as §1

[9] = test system: Danio rerio embryo; assay: EC20 Any effect; higher = less potent
Experimental: as §1

[10] = test system: Danio rerio embryo; assay: EC20 Eye size_Decrease; higher = less potent; details: exposure time: 2 dpf
Experimental: as §1

[11] = test system: Danio rerio embryo; assay: EC10 Pigmentation decrease; higher = less potent; details: exposure time: 2 dpf
Experimental: as §1

[12] = test system: Danio rerio embryo; assay: EC10 Head trunk angle_Decrease; higher = less potent; details: exposure time: 2 dpf
Experimental: as §1

[13] = test system: Danio rerio embryo; assay: EC50 Bladder size_Decrease; details: exposure time: 4 dpf
Experimental: as §1

[14] = test system: Danio rerio embryo; assay: EC10 Curvature_Increase; higher = less potent
Experimental: as §1

[15] = test system: Danio rerio embryo; assay: EC50 Head trunk angle_Decrease; details: exposure time: 2 dpf
Experimental: as §1

[16] = test system: Danio rerio embryo; assay: EC10 Any effect; higher = less potent
Experimental: as §1

[17] = test system: Danio rerio embryo; assay: EC10 Pericard size_Increase; higher = less potent
Experimental: as §1

[18] = test system: Danio rerio embryo; assay: EC50 Body length_Decrease; details: exposure time: 2 dpf
Experimental: as §1

[19] = test system: Danio rerio embryo; assay: EC20 Curvature_Increase; higher = less potent
Experimental: as §1

[20] = test system: Danio rerio embryo; assay: EC50 Pericard size_Increase
Experimental: as §1

[21] = test system: Danio rerio embryo; assay: spontaneous tail coiling frequency (coils/min/embryo); higher = more spontaneous movement; details: 25 hpf
Experimental: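 Spontaneous tail coilings of zebrafish embryos exposed from 2 hpf were recorded at 24-25 hpf in 1-min videos and detected by a KNIME workflow from grey-value variance. Betamethasone was tested as the dipropionate, diflorasone as the diacetate.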

[22] = test system: Danio rerio embryo; assay: EC10 Eye size_Decrease; higher = less potent; details: exposure time: 2 dpf
Experimental: as §1

[23] = test system: Danio rerio embryo; assay: EC50 Eye size_Decrease; details: exposure time: 2 dpf
Experimental: as §1

[24] = test system: Danio rerio embryo; assay: EC20 Bladder size_Decrease; higher = less potent; details: exposure time: 4 dpf
Experimental: as §1

[25] = test system: Danio rerio embryo; assay: EC10 Head size_Decrease; higher = less potent
Experimental: as §1

[26] = test system: Danio rerio embryo; assay: EC20 Head trunk angle_Decrease; higher = less potent; details: exposure time: 2 dpf
Experimental: as §1

[27] = test system: Danio rerio embryo; details: exposure time: 2 dpf
Experimental: as §1

[28] = test system: Danio rerio embryo; assay: EC20 Head size_Decrease; higher = less potent
Experimental: as §1

[29] = test system: Danio rerio embryo; assay: EC10 Bladder size_Decrease; higher = less potent; details: exposure time: 4 dpf
Experimental: as §1

[30] = test system: Danio rerio embryo; details: exposure time: 4 dpf
Experimental: as §1

[31] = test system: Danio rerio embryo; assay: EC20 Lack of SB; higher = less potent; details: exposure time: 4 dpf
Experimental: as §1

For `COC(=O)Nc1nc2ccccc2[nH]1` [Carbendazim], the “EC20 Pigmentation decrease” value [1] was 2.8 µM, the “EC50 Curvature Increase” value ([2]; exposure time: 2 dpf) was 3.27 µM and the “EC50 Curvature Increase” value ([2]; exposure time: 4 dpf) was 3.26 µM. For the same compound, the “EC50 Any effect” value ([3]; exposure time: 2 dpf) was 3.05 µM, the “EC50 Any effect” value ([3]; exposure time: 4 dpf) was 3.09 µM and the “EC20 Body length Decrease” value [4] was 2.95 µM. The “EC20 Pericard size Increase” value ([5]; exposure time: 2 dpf) was 3.11 µM, the “EC20 Pericard size Increase” value ([5]; exposure time: 4 dpf) was 2.76 µM and the “EC10 Lack of SB” value [6] was 2.3 µM. For the same compound, the “EC10 Body length Decrease” value [7] was 2.9 µM, the “EC50 Head size Decrease” value ([8]; exposure time: 2 dpf) was 3.51 µM and the “EC20 Any effect” value ([9]; exposure time: 2 dpf) was 2.98 µM. For the same compound, the “EC20 Any effect” value ([9]; exposure time: 4 dpf) was 2.85 µM, the “EC20 Eye size Decrease” value [10] was 2.9 µM and the “EC10 Pigmentation decrease” value [11] was 2.53 µM. The “EC10 Head trunk angle Decrease” value [12] was 2.73 µM, the “EC50 Bladder size Decrease” value [13] was 2.25 µM and the “EC10 Curvature Increase” value ([14]; exposure time: 2 dpf) was 2.71 µM. The “EC10 Curvature Increase” value ([14]; exposure time: 4 dpf) was 2.68 µM, the “EC50 Head trunk angle Decrease” value [15] was 3.47 µM and the “EC10 Any effect” value ([16]; exposure time: 2 dpf) was 2.93 µM. The “EC10 Any effect” value ([16]; exposure time: 4 dpf) was 2.72 µM, the “EC10 Pericard size Increase” value ([17]; exposure time: 2 dpf) was 2.94 µM and the “EC10 Pericard size Increase” value ([17]; exposure time: 4 dpf) was 2.63 µM. The “EC50 Body length Decrease” value [18] was 3.04 µM, the “EC20 Curvature Increase” value ([19]; exposure time: 2 dpf) was 2.9 µM and the “EC20 Curvature Increase” value ([19]; exposure time: 4 dpf) was 2.88 µM. The “EC50 Pericard size Increase” value ([20]; exposure time: 2 dpf) was 3.43 µM, the “EC50 Pericard size Increase” value ([20]; exposure time: 4 dpf) was 2.99 µM and the “spontaneous tail coiling frequency” value ([21]; 0.23 µM) was 2.14. The “spontaneous tail coiling frequency” value ([21]; 0.344 µM) was 1.91, the “spontaneous tail coiling frequency” value ([21]; 0.517 µM) was 2.25 and the “spontaneous tail coiling frequency” value ([21]; 0.775 µM) was 2.51 ± 0.64. The “spontaneous tail coiling frequency” value ([21]; 1.16 µM) was 1.06, the “spontaneous tail coiling frequency” value ([21]; 1.162 µM) was 2.68 and the “spontaneous tail coiling frequency” value ([21]; 1.74 µM) was 1.81. The “spontaneous tail coiling frequency” value ([21]; 1.743 µM) was 1.56, the “spontaneous tail coiling frequency” value ([21]; 2.615 µM) was 2.98 and the “spontaneous tail coiling frequency” value ([21]; 2.62 µM) was 2.11. The “spontaneous tail coiling frequency” value ([21]; 3.138 µM) was 4.11, the “spontaneous tail coiling frequency” value ([21]; 3.661 µM) was 3.75 and the “EC10 Eye size Decrease” value [22] was 2.69 µM. The “EC50 Eye size Decrease” value [23] was 3.3 µM, the “EC20 Bladder size Decrease” value [24] was 1.33 µM and the “EC10 Head size Decrease” value ([25]; exposure time: 2 dpf) was 2.81 µM. For the same compound, the “EC20 Head trunk angle Decrease” value [26] was 2.98 µM, the “EC50 Pigmentation decrease” value [27] was 3.34 µM and the “EC20 Head size Decrease” value ([28]; exposure time: 2 dpf) was 3.05 µM. For the same compound, the “EC10 Bladder size Decrease” value [29] was 0.977 µM, the “EC50 Lack of SB” value [30] was 2.7 µM and the “EC20 Lack of SB” value [31] was 2.44 µM.
For `COc1cccc2c1C(=O)c1c(O)c3c(c(O)c1C2=O)C[C@@](O)(C(C)=O)C[C@@H]3O[C@H]1C[C@H](N)[C@H](O)[C@H](C)O1` [Daunorubicin], the “EC50 Any effect” value ([3]; exposure time: 2 dpf) was 185 µM, the “EC50 Any effect” value ([3]; exposure time: 4 dpf) was 90.6 µM and the “EC20 Body length Decrease” value [4] was 80.4 µM. The “EC10 Lack of SB” value [6] was 13.3 µM, the “EC10 Body length Decrease” value [7] was 68.5 µM and the “EC50 Head size Decrease” value ([8]; exposure time: 4 dpf) was 43.4 µM. The “EC20 Any effect” value ([9]; exposure time: 2 dpf) was 68.6 µM, the “EC20 Any effect” value ([9]; exposure time: 4 dpf) was 87.6 µM and the “EC50 Bladder size Decrease” value [13] was 46.8 µM. For the same compound, the “EC10 Any effect” value ([16]; exposure time: 2 dpf) was 38.3 µM, the “EC10 Any effect” value ([16]; exposure time: 4 dpf) was 85.9 µM and the “EC50 Body length Decrease” value [18] was 106 µM. The “spontaneous tail coiling frequency” value ([21]; 17.5 µM) was 2.64, the “spontaneous tail coiling frequency” value ([21]; 23.3 µM) was 1.8 and the “spontaneous tail coiling frequency” value ([21]; 26.3 µM) was 3.47. For the same compound, the “spontaneous tail coiling frequency” value ([21]; 35 µM) was 2.25, the “spontaneous tail coiling frequency” value ([21]; 39.4 µM) was 2.69 and the “spontaneous tail coiling frequency” value ([21]; 52.5 µM) was 2.33. The “spontaneous tail coiling frequency” value ([21]; 59.1 µM) was 2.7, the “spontaneous tail coiling frequency” value ([21]; 78.8 µM) was 2.14 and the “spontaneous tail coiling frequency” value ([21]; 88.7 µM) was 2.85. For the same compound, the “EC20 Bladder size Decrease” value [24] was 17.5 µM, the “EC10 Head size Decrease” value ([25]; exposure time: 4 dpf) was 12.4 µM and the “EC20 Head size Decrease” value ([28]; exposure time: 4 dpf) was 19.7 µM. The “EC10 Bladder size Decrease” value [29] was 9.82 µM, the “EC50 Lack of SB” value [30] was 72.3 µM and the “EC20 Lack of SB” value [31] was 24.9 µM.

Reference: the supplement of paper PMC9013687
